Like-named read-outs stand apart in the source and are kept apart here.
Assays:
Test in all cases: Radiolabeled ATP kinase assay, panel of 60 kinases (Table S5)
Assay type in all cases: biochemical
[1] = target: T1, panel of 60 human kinases (Homo sapiens, UniProt Q16288); details: TRKC; 0.1 μM; 10 μM ATP; read-out: % Enzyme Activity (relative to DSMO controls)
T1 construct: purchased Reaction Biology Corp
Protocol: (§1) To better understand the biologically relevant targets of compound 1 and its analogs, a second round of cell-free kinase assays was performed. In this expanded assay, we selected ten analogs ranging from moderately to very strongly protective in the CPA assay. These analogs were evaluated for their ability to inhibit a selection of 60 kinases at 0.1 μM and 0.5 μM. […] RNAseq data were used to confirm the expression of each kinase in ES MNs (see Example 12).
(§2) RNAseq data were used to confirm the expression of each kinase in ES motor neurons (see Example 12).

[2] = target: T2, panel of 60 human kinases (Homo sapiens, UniProt Q9UKE5); details: TNIK; 0.1 μM; 10 μM ATP; read-out: % Enzyme Activity (relative to DSMO controls)
T2 construct: purchased Reaction Biology Corp
Protocol: as §1, §2

[3] = target: T3, panel of 60 human kinases (Homo sapiens, UniProt Q00536); details: CDK16/cyclin Y (PCTAIRE); 0.1 μM; 10 μM ATP; read-out: % Enzyme Activity (relative to DSMO controls)
T3 construct: purchased Reaction Biology Corp
Protocol: as §1, §2

[4] = target: T4, panel of 60 human kinases (Homo sapiens, UniProt Q07002); details: CDK18/cyclin Y (PCTK3); 0.1 μM; 10 μM ATP; read-out: % Enzyme Activity (relative to DSMO controls)
T4 construct: purchased Reaction Biology Corp
T4 sequence (Q07002 whole entry): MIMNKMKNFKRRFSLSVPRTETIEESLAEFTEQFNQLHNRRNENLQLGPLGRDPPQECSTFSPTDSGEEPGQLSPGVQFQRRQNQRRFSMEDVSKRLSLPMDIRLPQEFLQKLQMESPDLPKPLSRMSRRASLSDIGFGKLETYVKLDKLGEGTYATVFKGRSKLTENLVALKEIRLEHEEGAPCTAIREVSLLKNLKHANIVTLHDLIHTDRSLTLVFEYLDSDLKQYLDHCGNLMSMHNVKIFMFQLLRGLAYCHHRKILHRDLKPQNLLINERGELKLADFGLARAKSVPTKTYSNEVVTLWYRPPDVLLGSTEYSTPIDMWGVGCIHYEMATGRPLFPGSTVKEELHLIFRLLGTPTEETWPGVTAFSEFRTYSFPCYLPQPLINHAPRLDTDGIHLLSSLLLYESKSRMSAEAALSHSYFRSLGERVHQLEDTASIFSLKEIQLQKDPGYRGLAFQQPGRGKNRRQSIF
Protocol: as §1, §2

[5] = target: T5, panel of 60 human kinases (Homo sapiens, UniProt P49841); details: GSK3b; 0.1 μM; 10 μM ATP; read-out: % Enzyme Activity (relative to DSMO controls)
T5 construct: purchased Reaction Biology Corp
Protocol: as §1, §2

[6] = target: T6, panel of 60 human kinases (Homo sapiens, UniProt Q00537); details: CDK17/cyclin Y (PCTK2); 0.1 μM; 10 μM ATP; read-out: % Enzyme Activity (relative to DSMO controls)
T6 construct: purchased Reaction Biology Corp
Protocol: as §1, §2

[7] = target: T7, panel of 60 human kinases (Homo sapiens, UniProt P24941); details: 0.1 μM, 10 μM ATP, read-out: % Enzyme Activity (relative to DSMO controls)
T7 construct: purchased Reaction Biology Corp
Protocol: as §1, §2

[8] = target: T8, panel of 60 human kinases (Homo sapiens, UniProt Q00535); details: 0.1 μM, 10 μM ATP, read-out: % Enzyme Activity (relative to DSMO controls)
T8 construct: purchased Reaction Biology Corp
T8 sequence (Q00535 whole entry): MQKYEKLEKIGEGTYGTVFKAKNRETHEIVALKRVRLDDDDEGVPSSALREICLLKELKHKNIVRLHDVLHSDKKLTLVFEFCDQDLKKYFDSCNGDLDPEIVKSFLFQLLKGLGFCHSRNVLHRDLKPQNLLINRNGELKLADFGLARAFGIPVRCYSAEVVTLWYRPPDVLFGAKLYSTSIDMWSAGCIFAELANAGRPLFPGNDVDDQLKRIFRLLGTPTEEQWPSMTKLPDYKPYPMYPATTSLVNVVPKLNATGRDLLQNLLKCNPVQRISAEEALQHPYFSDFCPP
Protocol: as §1, §2

[9] = target: T9, panel of 60 human kinases (Homo sapiens, UniProt P49760); details: CLK2; 0.1 μM; 10 μM ATP; read-out: % Enzyme Activity (relative to DSMO controls)
T9 construct: purchased Reaction Biology Corp
Protocol: as §1, §2

[10] = target: T10, panel of 60 human kinases (Homo sapiens, UniProt P08581); details: c-MET; 0.1 μM; 10 μM ATP; read-out: % Enzyme Activity (relative to DSMO controls)
T10 construct: purchased Reaction Biology Corp
Protocol: as §1, §2

[11] = target: T11, panel of 60 human kinases (Homo sapiens, UniProt Q96GD4); details: Aurora B; 0.1 μM; 10 μM ATP; read-out: % Enzyme Activity (relative to DSMO controls)
T11 construct: purchased Reaction Biology Corp
Protocol: as §1, §2

[12] = target: T12, panel of 60 human kinases (Homo sapiens, UniProt P42684); details: ABL2/ARG; 0.1 μM; 10 μM ATP; read-out: % Enzyme Activity (relative to DSMO controls)
T12 construct: purchased Reaction Biology Corp
Protocol: as §1, §2

[13] = target: T13, panel of 60 human kinases (Homo sapiens, UniProt O14965); details: Aurora A; 0.1 μM; 10 μM ATP; read-out: % Enzyme Activity (relative to DSMO controls)
T13 construct: purchased Reaction Biology Corp
T13 sequence (O14965 1-403): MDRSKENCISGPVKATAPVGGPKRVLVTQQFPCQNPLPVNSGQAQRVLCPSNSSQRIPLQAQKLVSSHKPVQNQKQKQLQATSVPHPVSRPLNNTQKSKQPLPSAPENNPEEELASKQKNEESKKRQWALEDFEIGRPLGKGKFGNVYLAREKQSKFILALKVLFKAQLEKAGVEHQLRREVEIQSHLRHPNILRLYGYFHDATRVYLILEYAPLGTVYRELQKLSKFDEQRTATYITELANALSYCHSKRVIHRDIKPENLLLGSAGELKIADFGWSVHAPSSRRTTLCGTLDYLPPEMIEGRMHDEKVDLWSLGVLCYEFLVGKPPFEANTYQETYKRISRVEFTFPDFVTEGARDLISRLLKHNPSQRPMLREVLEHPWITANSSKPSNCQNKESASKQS
Protocol: as §1, §2

[14] = target: T14, panel of 60 human kinases (Homo sapiens, UniProt Q92918); details: HPK1/MAP4K1; 0.1 μM; 10 μM ATP; read-out: % Enzyme Activity (relative to DSMO controls)
T14 construct: purchased Reaction Biology Corp
T14 sequence (Q92918 whole entry): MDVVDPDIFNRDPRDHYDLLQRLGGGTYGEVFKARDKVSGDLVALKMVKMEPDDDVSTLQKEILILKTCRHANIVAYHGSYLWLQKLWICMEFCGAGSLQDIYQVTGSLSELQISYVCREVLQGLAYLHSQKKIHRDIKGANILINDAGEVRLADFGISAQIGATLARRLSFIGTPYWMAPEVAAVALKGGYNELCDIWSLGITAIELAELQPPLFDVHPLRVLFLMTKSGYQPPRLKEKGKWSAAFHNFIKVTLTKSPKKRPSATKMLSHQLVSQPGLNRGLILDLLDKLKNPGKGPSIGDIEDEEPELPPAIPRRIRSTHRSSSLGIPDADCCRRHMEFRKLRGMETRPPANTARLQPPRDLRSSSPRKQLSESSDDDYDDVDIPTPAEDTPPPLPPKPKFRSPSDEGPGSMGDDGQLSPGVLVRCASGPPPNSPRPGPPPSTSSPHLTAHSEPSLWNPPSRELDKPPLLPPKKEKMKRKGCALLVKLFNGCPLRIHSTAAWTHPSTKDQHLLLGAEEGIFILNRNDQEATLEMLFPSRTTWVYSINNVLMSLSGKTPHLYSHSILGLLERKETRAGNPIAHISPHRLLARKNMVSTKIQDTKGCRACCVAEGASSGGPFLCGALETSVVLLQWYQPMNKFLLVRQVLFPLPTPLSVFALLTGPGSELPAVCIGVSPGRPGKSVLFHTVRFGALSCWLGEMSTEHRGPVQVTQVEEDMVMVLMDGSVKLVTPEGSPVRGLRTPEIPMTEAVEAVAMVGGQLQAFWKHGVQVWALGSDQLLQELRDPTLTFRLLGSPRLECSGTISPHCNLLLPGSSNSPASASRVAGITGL
Protocol: as §1, §2

[15] = target: T15, panel of 60 human kinases (Homo sapiens, UniProt Q8N4C8); details: MINK/MINK1; 0.1 μM; 10 μM ATP; read-out: % Enzyme Activity (relative to DSMO controls)
T15 construct: purchased Reaction Biology Corp
T15 sequence (Q8N4C8 whole entry): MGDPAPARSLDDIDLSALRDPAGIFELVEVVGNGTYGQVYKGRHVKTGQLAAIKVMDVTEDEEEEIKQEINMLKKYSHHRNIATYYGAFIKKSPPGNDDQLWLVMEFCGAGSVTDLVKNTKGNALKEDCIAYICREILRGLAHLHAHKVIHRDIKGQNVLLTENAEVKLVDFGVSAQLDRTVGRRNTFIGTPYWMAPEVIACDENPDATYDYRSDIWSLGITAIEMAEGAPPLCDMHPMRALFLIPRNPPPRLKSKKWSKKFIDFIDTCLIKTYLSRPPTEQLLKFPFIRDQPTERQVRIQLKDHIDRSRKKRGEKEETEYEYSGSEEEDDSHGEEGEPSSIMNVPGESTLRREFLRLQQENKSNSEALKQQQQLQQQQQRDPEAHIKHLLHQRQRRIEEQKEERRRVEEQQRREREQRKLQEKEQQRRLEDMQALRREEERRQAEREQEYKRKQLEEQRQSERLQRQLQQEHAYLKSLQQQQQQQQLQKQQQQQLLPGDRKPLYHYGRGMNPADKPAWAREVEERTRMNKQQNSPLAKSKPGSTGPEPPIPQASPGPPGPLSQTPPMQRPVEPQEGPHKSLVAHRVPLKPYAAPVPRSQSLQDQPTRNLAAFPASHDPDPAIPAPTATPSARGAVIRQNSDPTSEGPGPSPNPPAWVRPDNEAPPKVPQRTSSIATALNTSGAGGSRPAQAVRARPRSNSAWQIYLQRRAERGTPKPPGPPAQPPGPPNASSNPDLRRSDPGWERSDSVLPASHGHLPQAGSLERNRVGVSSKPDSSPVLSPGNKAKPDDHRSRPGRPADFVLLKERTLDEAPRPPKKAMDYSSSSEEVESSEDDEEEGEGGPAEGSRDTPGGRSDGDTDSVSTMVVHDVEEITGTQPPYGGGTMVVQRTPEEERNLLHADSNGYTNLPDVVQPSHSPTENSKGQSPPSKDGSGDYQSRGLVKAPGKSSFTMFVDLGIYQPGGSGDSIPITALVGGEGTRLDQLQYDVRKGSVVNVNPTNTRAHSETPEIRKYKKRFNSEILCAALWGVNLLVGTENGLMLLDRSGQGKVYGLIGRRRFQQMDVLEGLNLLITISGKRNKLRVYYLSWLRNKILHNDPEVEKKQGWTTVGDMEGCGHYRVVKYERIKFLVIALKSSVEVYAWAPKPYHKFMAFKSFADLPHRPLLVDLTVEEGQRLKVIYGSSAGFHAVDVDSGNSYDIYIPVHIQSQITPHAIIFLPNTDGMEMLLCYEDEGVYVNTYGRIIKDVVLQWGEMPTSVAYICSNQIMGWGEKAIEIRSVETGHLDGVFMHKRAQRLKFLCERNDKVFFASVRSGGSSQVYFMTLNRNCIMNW
Protocol: as §1, §2

[16] = target: T16, panel of 60 human kinases (Homo sapiens, UniProt Q9HAZ1); details: CLK4; 0.1 μM; 10 μM ATP; read-out: % Enzyme Activity (relative to DSMO controls)
T16 construct: purchased Reaction Biology Corp
T16 sequence (Q9HAZ1 whole entry): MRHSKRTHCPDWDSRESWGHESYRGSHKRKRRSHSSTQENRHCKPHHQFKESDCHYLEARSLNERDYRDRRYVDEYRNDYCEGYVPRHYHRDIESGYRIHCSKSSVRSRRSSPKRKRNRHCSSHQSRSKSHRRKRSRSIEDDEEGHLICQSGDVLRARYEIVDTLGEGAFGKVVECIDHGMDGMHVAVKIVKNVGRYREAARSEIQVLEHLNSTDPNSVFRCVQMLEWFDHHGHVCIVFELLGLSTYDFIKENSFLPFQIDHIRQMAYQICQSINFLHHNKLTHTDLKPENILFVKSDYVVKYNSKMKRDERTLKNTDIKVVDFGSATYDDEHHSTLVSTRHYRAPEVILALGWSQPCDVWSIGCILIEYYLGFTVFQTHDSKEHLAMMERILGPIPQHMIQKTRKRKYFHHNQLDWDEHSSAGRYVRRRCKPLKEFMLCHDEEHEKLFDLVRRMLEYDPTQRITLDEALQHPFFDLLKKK
Protocol: as §1, §2

[17] = target: T17, panel of 60 human kinases (Homo sapiens, UniProt P22607); details: FGFR3; 0.1 μM; 10 μM ATP; read-out: % Enzyme Activity (relative to DSMO controls)
T17 construct: purchased Reaction Biology Corp
T17 sequence (P22607 23-806): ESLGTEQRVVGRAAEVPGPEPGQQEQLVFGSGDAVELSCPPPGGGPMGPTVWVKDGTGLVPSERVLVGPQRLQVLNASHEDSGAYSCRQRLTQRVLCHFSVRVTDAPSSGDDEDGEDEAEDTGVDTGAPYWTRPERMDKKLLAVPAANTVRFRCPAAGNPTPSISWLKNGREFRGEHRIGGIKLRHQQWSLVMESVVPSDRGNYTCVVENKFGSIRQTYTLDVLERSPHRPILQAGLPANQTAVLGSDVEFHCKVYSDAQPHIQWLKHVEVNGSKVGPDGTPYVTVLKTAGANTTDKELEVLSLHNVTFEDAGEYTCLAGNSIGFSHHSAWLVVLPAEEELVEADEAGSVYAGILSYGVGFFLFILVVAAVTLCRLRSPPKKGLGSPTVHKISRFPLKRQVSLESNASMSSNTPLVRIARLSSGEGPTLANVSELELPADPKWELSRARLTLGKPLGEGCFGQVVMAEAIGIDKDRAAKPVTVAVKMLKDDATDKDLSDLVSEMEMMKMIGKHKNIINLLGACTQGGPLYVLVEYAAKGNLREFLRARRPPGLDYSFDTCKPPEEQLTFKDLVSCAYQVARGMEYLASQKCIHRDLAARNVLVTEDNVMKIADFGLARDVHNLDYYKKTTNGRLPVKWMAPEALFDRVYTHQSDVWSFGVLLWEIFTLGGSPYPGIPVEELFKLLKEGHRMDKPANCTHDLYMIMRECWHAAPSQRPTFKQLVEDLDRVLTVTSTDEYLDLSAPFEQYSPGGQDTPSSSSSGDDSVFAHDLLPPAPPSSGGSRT
Protocol: as §1, §2

T1 sequence (Q16288 32-839): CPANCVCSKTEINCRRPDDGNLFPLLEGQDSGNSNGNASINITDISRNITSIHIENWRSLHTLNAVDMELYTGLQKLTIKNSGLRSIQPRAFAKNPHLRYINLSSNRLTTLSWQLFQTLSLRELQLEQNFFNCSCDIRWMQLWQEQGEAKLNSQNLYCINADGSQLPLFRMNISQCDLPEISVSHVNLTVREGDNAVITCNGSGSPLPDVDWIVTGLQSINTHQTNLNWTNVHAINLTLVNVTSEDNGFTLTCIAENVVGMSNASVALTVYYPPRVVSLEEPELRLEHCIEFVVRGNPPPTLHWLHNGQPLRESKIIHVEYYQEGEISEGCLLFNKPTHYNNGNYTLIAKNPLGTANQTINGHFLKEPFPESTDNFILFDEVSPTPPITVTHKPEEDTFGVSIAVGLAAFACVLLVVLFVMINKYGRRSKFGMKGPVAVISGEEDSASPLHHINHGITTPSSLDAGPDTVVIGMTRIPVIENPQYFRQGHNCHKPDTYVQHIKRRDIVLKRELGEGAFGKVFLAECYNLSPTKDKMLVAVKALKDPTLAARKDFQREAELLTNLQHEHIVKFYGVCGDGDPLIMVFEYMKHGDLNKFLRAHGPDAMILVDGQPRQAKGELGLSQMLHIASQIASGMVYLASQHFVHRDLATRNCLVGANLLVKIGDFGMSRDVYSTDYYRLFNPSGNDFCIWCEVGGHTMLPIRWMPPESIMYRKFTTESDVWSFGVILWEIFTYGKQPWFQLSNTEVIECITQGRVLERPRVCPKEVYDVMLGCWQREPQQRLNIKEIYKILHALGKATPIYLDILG

Row | Structure (SMILES) | remaining activity at 0.1 µM [1] | remaining activity at 0.1 µM [2] | remaining activity at 0.1 µM [3] | remaining activity at 0.1 µM [4] | remaining activity at 0.1 µM [5] | remaining activity at 0.1 µM [6] | remaining activity at 0.1 µM ([7]; CDK2/cyclin A1) | remaining activity at 0.1 µM ([7]; CDK2/cyclin A) | remaining activity at 0.1 µM ([7]; CDK2/cyclin E) | remaining activity at 0.1 µM ([7]; CDK2/cyclin O) | remaining activity at 0.1 µM ([8]; CDK5/p25) | remaining activity at 0.1 µM ([8]; CDK5/p35) | remaining activity at 0.1 µM [9] | remaining activity at 0.1 µM [10] | remaining activity at 0.1 µM [11] | remaining activity at 0.1 µM [12] | remaining activity at 0.1 µM [13] | remaining activity at 0.1 µM [14] | remaining activity at 0.1 µM [15] | remaining activity at 0.1 µM [16] | other results
1 | CN1CCN(Cc2ccc(-c3cnc4[nH]cc(-c5ccc6[nH]ccc6c5)c4c3)cc2)CC1 [Compound 1, 3-(1H-Indol-5-yl)-5-(4-((4-methylpiperazin-1-yl)methyl)phenyl)-1H-pyrrolo[2,3-b]pyridine, reference compound] | 6.69% | 3% | 94.9% | 103% | 100% | 66.1% | 83.6% | 83.7% | 97.9% | 72.5% | 52.8% | 52.3% | 22.8% | 55.9% | 88.8% | 54.9% | 81.4% | 24% | 5.53% | 59.2% | remaining activity at 0.1 µM [17]: 43.5%
2 | CN1CCN(Cc2ccc(-c3cnc4[nH]cc(-c5cccc(Cl)c5)c4c3)cc2)CC1 [Compound 7ad, 3-(3-Chlorophenyl)-5-(4-((4-methylpiperazin-1-yl)methyl)phenyl)-1H-pyrrolo[2,3-b]pyridine] | 51.2% | 0.68% | 96.9% | 112% | 98.1% | 70.4% | 97% | 87.4% | 96.2% | 75.1% | 84.4% | 83.9% | 79.8% | 86.2% | 91.8% | 83.7% | 97.3% | 62.5% | 3.06% | 87.8% | remaining activity at 0.1 µM [17]: 70.1%
3 | CN1CCN(Cc2ccc(-c3cnc4[nH]cc(-c5cnn(Cc6ccccc6)c5)c4c3)cc2)CC1 [Compound 7ah, 3-(1-Benzyl-1H-pyrazol-4-yl)-5-(4-((4-methylpiperazin-1-yl)methyl)phenyl)-1H-pyrrolo[2,3-b]pyridine] | 9.83% | 0.96% | 8.19% | 16.1% | 60.6% | 7.55% | 30.7% | 44.2% | 48.9% | 19.2% | 52% | 46.3% | 4.24% | 86.6% | 69.9% | 95.1% | 48.4% | 17.8% | 5.06% | 21.8% | remaining activity at 0.1 µM [17]: 76.6%

Reference: patent US12227500B2, “Substituted pyrrolo[2,3-b]pyridines for suppressing toxic endoplasmic reticulum stress” (THE TRUSTEES OF COLUMBIA UNIVERSITY IN THE CITY OF NEW YORK, priority 2018, dated 2025)
